Test results published in ChEMBL document CHEMBL1201862, “PubChem BioAssay data set” (2004).
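Step 1: Grow cells in 96-well plates. Step 2: Expose to compound for 48 hours at 5 concentrations. Step 3: Interpolate endpoints linearly; if unreached, use highest concentration. GI50: concentration for 50% inhibition of growth.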 Active and inactive are the calls of the source. Rule as the data show it: active = GI50 up to about 1.1 µM and inactive = higher. Where a SMILES comes first, the peptide text is derived from it. The star is where a group is joined. Boc = CC(C)(C)OC(=O)*; tBu = CC(C)(C)*

Key:
Assay in all cases: NCI tumour cell line growth inhibition, 48 h
[1] = system: 786-0
[2] = system: A549
[3] = system: ACHN
[4] = system: DU-145
[5] = system: HCT-116
[6] = system: HCT-15
[7] = system: IGROV-1
[8] = system: MCF7
[9] = system: MDA-MB-435
[10] = system: MDA-N
[11] = system: NCI-H226
[12] = system: NCI-H23
[13] = system: NCI-H522
[14] = system: OVCAR-8
[15] = system: SN12C
[16] = system: U-251
[17] = system: UACC-62
[18] = system: EKVX
[19] = system: SK-MEL-28
[20] = system: SNB-75

Row | SMILES | GI50 [1] | GI50 [2] | GI50 [3] | GI50 [4] | GI50 [5] | GI50 [6] [µM] | GI50 [7] | GI50 [8] | GI50 [9] | GI50 [10] | GI50 [11] | GI50 [12] | GI50 [13] | GI50 [14] | GI50 [15] | GI50 [16] | GI50 [17] | GI50 [18] | GI50 [19] | GI50 [20]
1 | CC(C)=Cc1cc(C)c2c(O)cc(C)c3c2c1C(C)=C(O)C3=O | 25.8 µM (inactive) | 24.8 µM (inactive) | 25.5 µM (inactive) | 28.7 µM (inactive) | 17.7 µM (inactive) | 23 | 27.5 µM (inactive) | 24.3 µM (inactive) | 26.5 µM (inactive) | 33 µM (inactive) | 21.5 µM (inactive) | 23.4 µM (inactive) | 18.3 µM (inactive) | 38.1 µM (inactive) | 32.9 µM (inactive) | 32.7 µM (inactive) | 20.5 µM (inactive) |  |  | 
2 | COc1cc(CCN)c(OC)c(OC)c1 | > 100 µM (inactive) | > 100 µM (inactive) | > 100 µM (inactive) | > 100 µM (inactive) | 44.4 µM (inactive) | > 100 | > 100 µM (inactive) | 42.3 µM (inactive) | 24.8 µM (inactive) | 39.2 µM (inactive) |  | > 100 µM (inactive) | > 100 µM (inactive) | > 100 µM (inactive) | > 100 µM (inactive) | > 100 µM (inactive) | > 100 µM (inactive) | > 100 µM (inactive) | > 100 µM (inactive) | > 100 µM (inactive)
3 | Cc1ccc(/N=N/c2c(C)c(C#N)c(=S)n(C3OC(CO)C(O)C(O)C3O)c2-c2ccccc2)cc1 (configuration not stated) | 21 µM (inactive) | 32 µM (inactive) | 30.7 µM (inactive) | 38.6 µM (inactive) | 13.2 µM (inactive) | 21.9 | 31.3 µM (inactive) | 18.2 µM (inactive) | 6.18 µM (inactive) | 8.07 µM (inactive) |  | 16.5 µM (inactive) |  |  | 31.4 µM (inactive) | 14.4 µM (inactive) | 14.5 µM (inactive) |  | 16.5 µM (inactive) | 20.1 µM (inactive)
4 | O=C1Nc2ccccc2N/C1=C\C(=O)C(F)F | > 100 µM (inactive) | > 100 µM (inactive) | > 100 µM (inactive) | > 100 µM (inactive) | > 100 µM (inactive) | > 100 | > 100 µM (inactive) | > 100 µM (inactive) | > 100 µM (inactive) | > 100 µM (inactive) | > 100 µM (inactive) | > 100 µM (inactive) | > 100 µM (inactive) | > 100 µM (inactive) | > 100 µM (inactive) | > 100 µM (inactive) | > 100 µM (inactive) | 14.9 µM (inactive) | > 100 µM (inactive) | 
5 | CCOC(=O)C(NC(=O)c1ccccc1)(Nc1ccc(S(=O)(=O)Nc2ncccn2)cc1)C(F)(F)F (configuration not stated) | > 100 µM (inactive) | > 100 µM (inactive) | > 100 µM (inactive) | > 100 µM (inactive) | > 100 µM (inactive) | > 100 | > 100 µM (inactive) | > 100 µM (inactive) | > 100 µM (inactive) | > 100 µM (inactive) | > 100 µM (inactive) | > 100 µM (inactive) |  | > 100 µM (inactive) | > 100 µM (inactive) | > 100 µM (inactive) | > 100 µM (inactive) | > 100 µM (inactive) | > 100 µM (inactive) | > 100 µM (inactive)
6 | N#C/C(=C1\N=C(c2ccccc2O)Oc2ccccc21)c1ccc([N+](=O)[O-])cc1 | 93.8 µM (inactive) | > 100 µM (inactive) | > 100 µM (inactive) | > 100 µM (inactive) | > 100 µM (inactive) | > 100 | 88.9 µM (inactive) | > 100 µM (inactive) | > 100 µM (inactive) | > 100 µM (inactive) | > 100 µM (inactive) | > 100 µM (inactive) |  | > 100 µM (inactive) | > 100 µM (inactive) | 71.9 µM (inactive) | > 100 µM (inactive) | > 100 µM (inactive) | > 100 µM (inactive) | 70.6 µM (inactive)
7 | CN(C)CCNc1nc2c(c(=O)n(C)c(=O)n2C)n1C | > 100 µM (inactive) | > 100 µM (inactive) | > 100 µM (inactive) | > 100 µM (inactive) | > 100 µM (inactive) | > 100 | > 100 µM (inactive) | > 100 µM (inactive) | > 100 µM (inactive) | > 100 µM (inactive) | > 100 µM (inactive) | > 100 µM (inactive) | > 100 µM (inactive) | > 100 µM (inactive) | > 100 µM (inactive) | > 100 µM (inactive) | > 100 µM (inactive) | > 100 µM (inactive) | > 100 µM (inactive) | 
8 | COc1ccc2c(c1)/C(=C\c1c(C)nc3sc(C)cn13)C(=O)N2 | 2.32 µM (inactive) | 1.36 µM (inactive) | 3.83 µM (inactive) | 4.83 µM (inactive) | 0.498 µM (active) | 0.49 | 0.755 µM (active) | 0.332 µM (active) | 0.106 µM (active) | 0.124 µM (active) | 0.841 µM (active) | 2.31 µM (inactive) | 0.175 µM (active) | 2.94 µM (inactive) | 8.49 µM (inactive) | 0.217 µM (active) | 0.274 µM (active) | 3.24 µM (inactive) | 54.6 µM (inactive) | 
9 | COc1ccccc1Nc1nc2c([nH]1)c(=O)n(C)c(=O)n2C | > 10 µM (inactive) | > 10 µM (inactive) |  | > 10 µM (inactive) |  | > 10 | > 10 µM (inactive) | > 10 µM (inactive) | > 10 µM (inactive) | > 10 µM (inactive) |  | > 10 µM (inactive) |  | > 10 µM (inactive) | > 10 µM (inactive) |  | > 10 µM (inactive) | > 10 µM (inactive) | > 10 µM (inactive) | > 10 µM (inactive)
10 | CC(OC(C)(C)C)C(NC(=O)C(N)CCCCNC(=O)OC(C)(C)C)C(=O)NC(Cc1ccccc1)C(=O)O (configuration not stated) (H-Lys(Boc)-Thr(tBu)-Phe-OH; configuration not given here) | > 100 µM (inactive) | > 100 µM (inactive) | > 100 µM (inactive) | > 100 µM (inactive) | > 100 µM (inactive) | > 100 | > 100 µM (inactive) | > 100 µM (inactive) | > 100 µM (inactive) | > 100 µM (inactive) | > 100 µM (inactive) | > 100 µM (inactive) |  | > 100 µM (inactive) | > 100 µM (inactive) | > 100 µM (inactive) | > 100 µM (inactive) | > 100 µM (inactive) | > 100 µM (inactive) | > 100 µM (inactive)
11 | CCNCCNc1c2ccccc2nc2ccccc12 | 0.791 µM (active) | 1.56 µM (inactive) | 0.366 µM (active) | 1.62 µM (inactive) | 0.515 µM (active) | 1.48 | 1.88 µM (inactive) | 0.565 µM (active) | 1.21 µM (inactive) | 1.28 µM (inactive) |  | 1.26 µM (inactive) | 1.04 µM (active) | 1.81 µM (inactive) | 0.938 µM (active) |  | 1.49 µM (inactive) | 2.44 µM (inactive) |  | 1.53 µM (inactive)
12 | S=C(S)N1CCN(c2cccc(Cl)c2)CC1 | 73.1 µM (inactive) | > 100 µM (inactive) | > 100 µM (inactive) | > 100 µM (inactive) | 41.4 µM (inactive) | > 100 | > 100 µM (inactive) | > 100 µM (inactive) | > 100 µM (inactive) | > 100 µM (inactive) |  | > 100 µM (inactive) | > 100 µM (inactive) | > 100 µM (inactive) | > 100 µM (inactive) | 44.3 µM (inactive) | > 100 µM (inactive) | > 100 µM (inactive) | 39.8 µM (inactive) | 69.3 µM (inactive)
13 | CCCCOc1ccc(S(=O)(=O)N/C(=N\O)Nc2ccc(Cl)cc2)cc1 | 15.8 µM (inactive) | 16.1 µM (inactive) | 14.9 µM (inactive) | 15.9 µM (inactive) | 16.9 µM (inactive) | 14.6 |  | 13.3 µM (inactive) | 15.9 µM (inactive) | 17.7 µM (inactive) | 24 µM (inactive) | 14.7 µM (inactive) | 14.7 µM (inactive) | 17.9 µM (inactive) | 17.3 µM (inactive) | 15.5 µM (inactive) | 15.2 µM (inactive) | 15.8 µM (inactive) | 18.2 µM (inactive) | 
14 | CCOC(=O)c1nc2cc(C(F)(F)F)ccc2nc1Nc1ccc(C(=O)NC(C(=O)OCC)C(=O)OCC)cc1 | 14.3 µM (inactive) |  | 23.3 µM (inactive) | 51.6 µM (inactive) | 19 µM (inactive) | 26.5 | 20.1 µM (inactive) | 19.5 µM (inactive) | 33.6 µM (inactive) | > 10 µM (inactive) | 13.7 µM (inactive) | 35.5 µM (inactive) | 18.7 µM (inactive) |  | 18.9 µM (inactive) | 14 µM (inactive) | 11.5 µM (inactive) | 26.2 µM (inactive) | 14.1 µM (inactive) | 
15 | CN1CCN(C(=S)N(C)C(=O)c2ccco2)CC1 | > 100 µM (inactive) | > 100 µM (inactive) | > 100 µM (inactive) | > 100 µM (inactive) |  | > 100 | > 100 µM (inactive) | > 100 µM (inactive) | > 100 µM (inactive) | > 100 µM (inactive) | > 100 µM (inactive) | > 100 µM (inactive) | > 100 µM (inactive) | > 100 µM (inactive) | > 100 µM (inactive) | > 100 µM (inactive) | > 100 µM (inactive) |  |  | 
16 | Cc1cccc(C)c1NC(=O)C(Cc1c[nH]c2ccccc12)NC(=O)OCc1ccccc1 (configuration not stated) | 20.1 µM (inactive) | 14.6 µM (inactive) | 19.8 µM (inactive) | 17 µM (inactive) | 23.9 µM (inactive) | 22.3 | 19.6 µM (inactive) | 23.2 µM (inactive) | 14.7 µM (inactive) | 15.7 µM (inactive) |  | 24 µM (inactive) | 20.1 µM (inactive) | 27.3 µM (inactive) | 21.5 µM (inactive) | 19.5 µM (inactive) | 16.6 µM (inactive) | 15.2 µM (inactive) | 18.9 µM (inactive) | 18.7 µM (inactive)
